Source: PMC8769378, “Underlining the Importance of Peripheral Protic Functional Groups to Enhance the Proton Exchange of Gd-Based MRI Contrast Agents” (Inorganic Chemistry, 2021)

What was measured:
[1] = Stability and protonation constants of Zn^II complexes by pH potentiometry; format: physicochemical
From the text: (§1) The metal complexes of biomedical interest must show a high in vivo stability, which includes high thermodynamic stability and kinetic inertness to allow targeting applications and to avoid possible toxic effects derived by metal ion and ligand release via transmetalation or transchelation reactions.[2],[3],[13] The protonation constants of L2 as well as the stability and the protonation constants of GdL2 and those of the most important endogenous divalent metal complexes (Ca^II-, Zn^II-, and Cu^II) were determined by pH potentiometry (Table 1 and Table S1). In the case of GdL1, we were interested in determining the dissociation constant of the hydroxyl group that was measured also by pH potentiometry (Table 1). Experimental details and the definitions and equations used for the evaluation of the equilibrium and kinetic data are summarized in the SI.
The stability and protonation constants of Ca^2+, Zn^2+, and Cu^2+ complexes formed with the L1 ligand were determined by pH potentiometric titration. The metal-to-ligand concentration ratio was 1:1 (the concentration of the ligand was generally 0.002 M). The protonation constants of the GdL1 and GdL2 complexes were determined using pH potentiometry by titrating the preprepared complexes from pH = 3.0 to pH = 12 for GdL2 and from pH = 4.0 to pH = 12 for GdL1 with 0.2 M NaOH. The stability constants of GdL2 were determined by the “out-of-cell” technique because of the slow formation reaction. The pH range of the complexation equilibria and the time needed to reach the equilibria were determined by relaxometry for the formation of GdL2. […] For the calculation of the stability constants of GdL2, besides the protonation constants of ligands, the stability constants of the diprotonated *Gd(H2L2) out-of-cage complexes (considered as intermediates) were also used as fixed values, which were calculated from the pH potentiometric titration curve of the Gd^3+–L2 system obtained in the pH range 1.7–4.0.
For the pH measurements and titrations, the Metrohm 888 Titrando titration workstation Metrohm-6.0234.110 combined electrode was used. […] For the calculation of [H^+] from the measured pH values, the method proposed by Irving et al. was used as follows.[34] […] The differences (A) between the measured (pHread) and calculated (−log[H^+]) pH values were used to obtain the equilibrium H^+ concentration from the pH values measured in the titration experiments (A = 0.024). […]
The stability and protonation constants of CaII-, ZnII-, CuII- and GdIII-complexes of L2, expressed by Eqs. (S2) and (S3), were determined by pH-potentiometry and spectrophotometry at 25 °C in 0.15 M […]
where i=0, 1, 2, 3. […] The stability constant of GdL2 was calculated from the equilibrium data obtained by the “out-of-cell” technique due to the slow complexation reaction. […]

[2] = Protonation constants of the Gd^III complexes by pH potentiometry; format: physicochemical; details: 0.15 M NaCl, 298 K
From the text: as §1, with “Experimental details and the definitions and equations used for the evaluation of the equilibrium and kinetic data are summarized in the SI.” left out
The stability and protonation constants of Ca^2+, Zn^2+, and Cu^2+ complexes formed with the […] ligand were determined by pH potentiometric titration. […] The protonation constants of the GdL1 and GdL2 complexes were determined using pH potentiometry by titrating the preprepared complexes from pH = 3.0 to pH = 12 for GdL2 and from pH = 4.0 to pH = 12 for GdL1 with 0.2 M NaOH. The stability constants of GdL2 were determined by the “out-of-cell” technique because of the slow formation reaction. The pH range of the complexation equilibria and the time needed to reach the equilibria were determined by relaxometry for the formation of GdL2. […]

ZnH2L (log K) ([1]; 0.15 M NaCl, 25 °C): 3.32 (3)
ZnH3L (log K) ([1]; 0.15 M NaCl, 25 °C): 2.29 (5)
ZnHL (log K, protonation constant of the complex) ([1]; 0.15 M NaCl, 25 °C): 3.86 (5)
ZnL (log K, stability constant) ([1]; I = 0.15 M NaCl, 298 K): 17.81 (6)
Gd(L)H–1 (log KGd(L)H-1, protonation constant of the alkoxide) [2]: 9.58 (3)
Gd(HL) (log K, protonation constant of the Gd complex) ([2]; carboxylate of the 2-hydroxypropanoic arm): 3.36 (3)
Compound: O=C(O)CN1CCN(CC(=O)O)CCN(C[C@@H](O)C(=O)O)CCN(CC(=O)O)CC1 [L2, (R)2,2′,2″-(10-(2-Carboxy-2-hydroxyethyl)-1,4,7,10-tetraazacyclododecane-1,4,7-triyl) Triacetic Acid]
